Measured values reported in US20210198277A1, “AMINE-SUBSTITUTED ARYL OR HETEROARYL COMPOUNDS” (Epizyme, Inc., priority 2016, published 2021).

Experiments:
human EHMT2 913-1193 = target: T1, human EHMT2 913-1193 (Homo sapiens, UniProt Q96KQ7); assay: EHMT2 enzyme assay on histone peptide substrate (EHMT2 PEP); format: biochemical; conditions: Table III; read-out: EHMT2 PEP (IC50 μM)
T1 construct: recombinant purified human EHMT2 913-1193, Viva; purchased Viva
T1 sequence (Q96KQ7 913-1193): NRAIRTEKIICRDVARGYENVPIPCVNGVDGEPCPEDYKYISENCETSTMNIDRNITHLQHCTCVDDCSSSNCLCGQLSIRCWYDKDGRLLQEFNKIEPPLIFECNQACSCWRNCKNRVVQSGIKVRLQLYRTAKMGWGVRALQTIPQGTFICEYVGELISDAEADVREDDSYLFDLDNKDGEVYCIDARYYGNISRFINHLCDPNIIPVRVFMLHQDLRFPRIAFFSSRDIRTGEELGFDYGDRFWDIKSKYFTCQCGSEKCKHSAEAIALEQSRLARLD
Procedure, shortened: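 Inhibition is measured as reduced tritium incorporation into a biotinylated histone peptide from ^3H-SAM. The enzyme (0.031 nM) sees compound for 30 minutes before a 60-minute room-temperature reaction, which unlabeled SAM quenches prior to streptavidin Flashplate capture.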

EHMT1 = target: T2, EHMT1 (Homo sapiens, UniProt Q9H9B1); assay: EHMT1 enzyme assay on peptide substrate (EHMT1 PEP); format: biochemical; conditions: Table III; read-out: EHMT1 PEP (IC50 μM)
T2 sequence (Q9H9B1 1-1298): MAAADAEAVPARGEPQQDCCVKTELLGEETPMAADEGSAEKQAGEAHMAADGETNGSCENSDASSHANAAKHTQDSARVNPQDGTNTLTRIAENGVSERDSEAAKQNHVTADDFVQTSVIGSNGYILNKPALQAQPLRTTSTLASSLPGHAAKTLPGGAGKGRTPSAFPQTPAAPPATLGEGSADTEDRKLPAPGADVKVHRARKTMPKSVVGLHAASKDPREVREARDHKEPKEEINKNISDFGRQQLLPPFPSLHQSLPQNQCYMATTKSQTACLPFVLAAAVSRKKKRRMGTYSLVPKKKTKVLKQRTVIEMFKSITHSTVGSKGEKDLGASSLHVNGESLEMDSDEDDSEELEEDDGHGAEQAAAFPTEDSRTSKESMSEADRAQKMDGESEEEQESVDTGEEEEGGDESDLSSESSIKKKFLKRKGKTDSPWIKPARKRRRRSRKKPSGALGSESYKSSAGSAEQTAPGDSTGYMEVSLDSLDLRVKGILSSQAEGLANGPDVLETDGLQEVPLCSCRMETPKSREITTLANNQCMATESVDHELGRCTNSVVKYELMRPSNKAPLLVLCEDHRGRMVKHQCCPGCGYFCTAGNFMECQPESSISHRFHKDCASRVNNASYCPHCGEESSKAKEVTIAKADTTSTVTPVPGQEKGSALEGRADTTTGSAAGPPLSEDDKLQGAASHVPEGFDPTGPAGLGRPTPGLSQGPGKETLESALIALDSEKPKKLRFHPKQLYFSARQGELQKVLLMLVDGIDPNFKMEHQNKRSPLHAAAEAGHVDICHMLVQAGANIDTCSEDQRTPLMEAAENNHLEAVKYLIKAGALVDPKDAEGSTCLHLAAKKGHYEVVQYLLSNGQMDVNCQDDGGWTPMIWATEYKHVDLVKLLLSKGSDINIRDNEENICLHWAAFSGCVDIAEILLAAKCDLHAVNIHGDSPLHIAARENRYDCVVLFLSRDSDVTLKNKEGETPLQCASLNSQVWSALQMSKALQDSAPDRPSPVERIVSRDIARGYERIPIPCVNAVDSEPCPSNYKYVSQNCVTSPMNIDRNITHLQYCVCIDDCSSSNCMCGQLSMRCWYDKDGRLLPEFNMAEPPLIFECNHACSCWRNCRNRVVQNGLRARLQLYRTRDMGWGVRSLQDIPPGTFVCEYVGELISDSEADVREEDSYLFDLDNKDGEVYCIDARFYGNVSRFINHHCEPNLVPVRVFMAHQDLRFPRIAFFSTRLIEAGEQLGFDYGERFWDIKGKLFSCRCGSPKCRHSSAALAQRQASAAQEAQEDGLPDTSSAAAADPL

CNc1ccnc(Nc2ccc(OC)c(COC3CCN(C)C3)c2)n1 (stereo not shown) [Compound 407, N^2-(4-methoxy-3-(((1-methylpyrrolidin-3-yl)oxy)methyl)phenyl)-N^4-methylpyrimidine-2,4-diamine]
IC50 (human EHMT2 913-1193): 0.1 to 1 µM
IC50 (EHMT1): 0.1 to 1 µM

CCN1CCC(COc2cc(Nc3nccc(NC)n3)ccc2OC)C1 (stereo not shown) [Compound 408, N^2-(3-((1-ethylpyrrolidin-3-yl)methoxy)-4-methoxyphenyl)-N^4-methylpyrimidine-2,4-diamine]
IC50 (human EHMT2 913-1193): 0.1 to 1 µM
IC50 (EHMT1): 0.1 to 1 µM

CNc1ccnc(Nc2ccc(OC)c(OCC3CCN(C(C)C)C3)c2)n1 (stereo not shown) [Compound 409, N^2-(3-((1-isopropylpyrrolidin-3-yl)methoxy)-4-methoxyphenyl)-N^4-methylpyrimidine-2,4-diamine]
IC50 (human EHMT2 913-1193): < 0.1 µM
IC50 (EHMT1): < 0.1 µM

CNc1ccnc(Nc2ccc(OC)c(OCC3CCN(CCOC)C3)c2)n1 (stereo not shown) [Compound 410, N^2-(4-methoxy-3-((1-(2-methoxyethyl)pyrrolidin-3-yl)methoxy)phenyl)-N^4-methylpyrimidine-2,4-diamine]
IC50 (human EHMT2 913-1193): 1 to 10 µM
IC50 (EHMT1): 1 to 10 µM

CNc1ccnc(Nc2ccc(OC)c(OCC3CCN(C4CC4)C3)c2)n1 (stereo not shown) [Compound 411, N^2-(3-((1-cyclopropylpyrrolidin-3-yl)methoxy)-4-methoxyphenyl)-N^4-methylpyrimidine-2,4-diamine]
IC50 (human EHMT2 913-1193): < 0.1 µM
IC50 (EHMT1): < 0.1 µM

CNc1ccnc(Nc2ccc(OC)c(OCC3CCCN(C)C3)c2)n1 (stereo not shown) [Compound 412, N^2-(4-methoxy-3-((1-methylpiperidin-3-yl)methoxy)phenyl)-N^4-methylpyrimidine-2,4-diamine]
IC50 (human EHMT2 913-1193): 0.1 to 1 µM
IC50 (EHMT1): 0.1 to 1 µM

CNc1cc(C)nc(Nc2ccc(OC)c(OCC3CCCN(C)C3)c2)n1 (stereo not shown) [Compound 413, N^2-(4-methoxy-3-((1-methylpiperidin-3-yl)methoxy)phenyl)-N^4,6-dimethylpyrimidine-2,4-diamine]
IC50 (human EHMT2 913-1193): 0.1 to 1 µM
IC50 (EHMT1): 0.1 to 1 µM

CNc1ccnc(Nc2ccc(OC)c(OCCCN3CC(O)C3)c2)n1 [Compound 414, 1-(3-(2-methoxy-5-((4-(methylamino)pyrimidin-2-yl)amino)phenoxy)propyl)azetidin-3-ol]
IC50 (human EHMT2 913-1193): < 0.1 µM
IC50 (EHMT1): < 0.1 µM

CCCN1CCC(COc2cc(Nc3nccc(NC)n3)ccc2OC)C1 (stereo not shown) [Compound 420, N^2-(4-methoxy-3-((1-propylpyrrolidin-3-yl)methoxy)phenyl)-N^4-methylpyrimidine-2,4-diamine]
IC50 (human EHMT2 913-1193): 0.1 to 1 µM
IC50 (EHMT1): 0.1 to 1 µM

CNc1cc(C)nc(Nc2ccc(OC)c(COC3CCN(C)C3)c2)n1 (stereo not shown) [Compound 421, N^2-(4-methoxy-3-(((1-methylpyrrolidin-3-yl)oxy)methyl)phenyl)-N^4,6-dimethylpyrimidine-2,4-diamine]
IC50 (human EHMT2 913-1193): 0.1 to 1 µM
IC50 (EHMT1): 0.1 to 1 µM

CNc1ccnc(Nc2ccc(OC)c(OCC3CCN(CC4CC4)C3)c2)n1 (stereo not shown) [Compound 422, N^2-(3-((1-(cyclopropylmethyl)pyrrolidin-3-yl)methoxy)-4-methoxyphenyl)-N^4-methylpyrimidine-2,4-diamine]
IC50 (human EHMT2 913-1193): 0.1 to 1 µM
IC50 (EHMT1): 0.1 to 1 µM
